Measured values reported in patent US8198273B2, “Compounds and methods for kinase modulation, and indications therefor” (Plexxikon Inc., priority 2009, dated 2012).

Legend:
CYP3A4(BQ) = CYP3A4(BQ) (Homo sapiens, UniProt P08684); test: CYP3A4(BQ) inhibition (fluorescent substrate); type: in vitro ADME; conditions: read-out: Cyp IC50 3A4(BQ)
Protocol: (§1) CYP (Cytochrome P450) enzymes are the major drug metabolizing enzymes present in the liver. The inhibition of CYP enzyme activity (IC50) for each of CYP1A2, CYP2C19, CYP2C9, CYP2D6, CYP3A4(BFC) and CYP3A4(BQ) is determined for compounds, where inhibition of metabolism of a known substrate leads to a decrease in the fluorescence of the metabolized product. The fluorescence of the product is monitored as a function of compound concentration. Compounds are dissolved in dimethyl sulfoxide to a concentration of 100 mM. These are diluted 1 μL into 82 μL of acetonitrile. […] These are then serially diluted 1:1 (160 μL to 160 μL co-factor mix) for a total of 10 points. A 10 μL aliquot of this final mixture is dispensed into 384 well assay plates and incubated for 10 minutes at 37° C. […] Assay plates are incubated at 37° C. […] The signal versus compound concentration is used to determine the IC50. The enzymes and substrates for this assay are obtained from BD Biosciences.

[1] = test system: SW620 colon adenocarcinoma cells (wild-type B-RAF); test: SW620 cell growth inhibition (ATPlite); type: cell-based; conditions: Homo sapiens, SW-620, 72 h; SW620, 3 days incubation
Summary of the method: (§2)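 ATPlite luminescence, taken as a cell-number measure, gave IC50 values after a 3-day 37° C, 5% CO2 incubation. Compounds were tested as 8-point threefold titrations, highest final concentration 10 μM, added to cells seeded the day before.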

CYP2C9 = CYP2C9 (Homo sapiens, UniProt P11712); test: CYP2C9 inhibition (fluorescent substrate); type: in vitro ADME; conditions: CYP2C9, MFC substrate; read-out: Cyp IC50 2C9
Chain of CYP2C9 (P11712 whole entry): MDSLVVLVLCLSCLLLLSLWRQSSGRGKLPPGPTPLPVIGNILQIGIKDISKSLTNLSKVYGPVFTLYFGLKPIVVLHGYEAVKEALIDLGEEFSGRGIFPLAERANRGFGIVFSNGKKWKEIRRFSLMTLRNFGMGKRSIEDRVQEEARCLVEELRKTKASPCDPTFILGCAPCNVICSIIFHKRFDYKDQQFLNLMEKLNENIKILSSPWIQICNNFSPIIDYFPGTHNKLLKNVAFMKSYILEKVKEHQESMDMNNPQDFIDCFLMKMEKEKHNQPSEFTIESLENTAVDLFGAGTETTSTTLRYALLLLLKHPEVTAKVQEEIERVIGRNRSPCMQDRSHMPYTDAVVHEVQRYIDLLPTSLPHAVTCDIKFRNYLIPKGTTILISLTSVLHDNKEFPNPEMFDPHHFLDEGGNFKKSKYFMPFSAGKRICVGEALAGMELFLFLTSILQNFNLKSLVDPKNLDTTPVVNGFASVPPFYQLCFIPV
Protocol: CYP (Cytochrome P450) enzymes are the major drug metabolizing enzymes present in the liver. The inhibition of CYP enzyme activity (IC50) for each of CYP1A2, CYP2C19, CYP2C9, CYP2D6, CYP3A4(BFC) and CYP3A4(BQ) is determined for compounds, where inhibition of metabolism of a known substrate leads to a decrease in the fluorescence of the metabolized product. The fluorescence of the product is monitored as a function of compound concentration.
Compounds are dissolved in dimethyl sulfoxide to a concentration of 100 mM. These are diluted 1 μL into 82 μL of acetonitrile. […] These are then serially diluted 1:1 (160 μL to 160 μL co-factor mix) for a total of 10 points. A 10 μL aliquot of this final mixture is dispensed into 384 well assay plates and incubated for 10 minutes at 37° C. […] Assay plates are incubated at 37° C. […] The signal versus compound concentration is used to determine the IC50. The enzymes and substrates for this assay are obtained from BD Biosciences.

[2] = test system: A375 melanoma cells (B-Raf V600E); test: A375 cell growth inhibition (ATPlite); type: cell-based; conditions: Homo sapiens, A-375, 72 h; A375, 3 days incubation
Summary of the method: as §2

CYP3A4(BFC) = CYP3A4(BFC) (Homo sapiens, UniProt P08684); test: CYP3A4(BFC) inhibition (fluorescent substrate); type: in vitro ADME; conditions: read-out: Cyp IC50 3A4(BFC)
Chain of CYP3A4(BFC) (P08684 whole entry): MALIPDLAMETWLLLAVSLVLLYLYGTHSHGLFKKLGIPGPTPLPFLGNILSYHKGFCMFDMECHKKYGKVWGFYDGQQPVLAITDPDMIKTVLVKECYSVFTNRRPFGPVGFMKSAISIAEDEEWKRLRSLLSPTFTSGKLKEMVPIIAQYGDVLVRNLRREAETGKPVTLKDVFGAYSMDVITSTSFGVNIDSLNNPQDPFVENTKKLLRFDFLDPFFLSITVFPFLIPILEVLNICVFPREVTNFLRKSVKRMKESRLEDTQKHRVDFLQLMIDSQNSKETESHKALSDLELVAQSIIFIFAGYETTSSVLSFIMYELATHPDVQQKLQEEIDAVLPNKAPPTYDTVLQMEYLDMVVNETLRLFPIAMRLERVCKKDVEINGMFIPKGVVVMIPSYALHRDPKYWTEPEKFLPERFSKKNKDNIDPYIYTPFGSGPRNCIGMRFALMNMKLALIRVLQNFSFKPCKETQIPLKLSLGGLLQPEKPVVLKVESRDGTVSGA
Protocol: as §1

Chain of CYP3A4(BQ) (P08684 whole entry): as above

SMILES | IC50 (CYP3A4(BQ)) | IC50 [1] | IC50 (CYP2C9) | IC50 [2] | IC50 (CYP3A4(BFC))
COc1ncc(-c2cnc3[nH]cc(C(=O)c4c(F)ccc(NS(=O)(=O)c5c(F)cccc5F)c4F)c3c2)cn1 [P-2043, N-{2,4-Difluoro-3-[5-(2-methoxy-pyrimidin-5-yl)-1H-pyrrolo[2,3-b]pyridine-3-carbonyl]-phenyl}-2,6-difluoro-benzenesulfonamide] | > 10 µM | > 10 µM | > 10 µM | < 5 µM | > 10 µM
CCCS(=O)(=O)Nc1ccc(F)c(C(=O)c2c[nH]c3ncc(-c4cnc(OC)nc4OC)cc23)c1F [P-2199, Propane-1-sulfonic acid {3-[5-(2,4-dimethoxy-pyrimidin-5-yl)-1H-pyrrolo[2,3-b]pyridine-3-carbonyl]-2,4-difluoro-phenyl}-amide] | > 10 µM | – | > 10 µM | < 5 µM | > 10 µM
CCCS(=O)(=O)Nc1ccc(F)c(C(=O)c2c[nH]c3ncc(-c4ccc(C#CCN(CC)CC)nc4)cc23)c1F [P-2222, Propane-1-sulfonic acid (3-{5-[6-(3-diethylamino-prop-1-ynyl)-pyridin-3-yl]-1H-pyrrolo[2,3-b]pyridine-3-carbonyl}-2,4-difluoro-phenyl)-amide] | 5 to 10 µM | > 10 µM | 5 to 10 µM | < 0.1 µM | > 10 µM
CCCS(=O)(=O)Nc1ccc(F)c(C(=O)c2c[nH]c3ncc(-c4ccc(CCCOC)nc4)cc23)c1F [P-2226, Propane-1-sulfonic acid (2,4-difluoro-3-{5-[6-(3-methoxy-propyl)-pyridin-3-yl]-1H-pyrrolo[2,3-b]pyridine-3-carbonyl}-phenyl)-amide] | > 10 µM | > 10 µM | < 5 µM | < 0.1 µM | > 10 µM
CCCS(=O)(=O)Nc1ccc(F)c(C(=O)c2c[nH]c3ncc(-c4cnc(N5CCOCC5)nc4)cc23)c1F [P-2197, Propane-1-sulfonic acid {2,4-difluoro-3-[5-(2-morpholin-4-yl-pyrimidin-5-yl)-1H-pyrrolo[2,3-b]pyridine-3-carbonyl]-phenyl}-amide] | > 10 µM | – | > 10 µM | < 1 µM | > 10 µM
CCCS(=O)(=O)Nc1ccc(F)c(C(=O)c2c[nH]c3ncc(-c4ccc(C(=O)NCC)nc4)cc23)c1F [P-2151, 5-{3-[2,6-Difluoro-3-(propane-1-sulfonylamino)-benzoyl]-1H-pyrrolo[2,3-b]pyridin-5-yl}-pyridine-2-carboxylic acid ethylamide] | > 10 µM | – | 5 to 10 µM | < 1 µM | > 10 µM
CCCc1ccc(-c2cnc3[nH]cc(C(=O)c4c(F)ccc(NS(=O)(=O)CCC)c4F)c3c2)cn1 [P-2224, Propane-1-sulfonic acid {2,4-difluoro-3-[5-(6-propyl-pyridin-3-yl)-1H-pyrrolo[2,3-b]pyridine-3-carbonyl]-phenyl}-amide] | > 10 µM | > 10 µM | 5 to 10 µM | < 1 µM | > 10 µM
N#Cc1cnc2[nH]cc(C(=O)c3cccc(NS(=O)(=O)c4c(F)cccc4F)c3F)c2c1 [P-2054, N-[3-(5-Cyano-1H-pyrrolo[2,3-b]pyridine-3-carbonyl)-2-fluoro-phenyl]-2,6-difluoro-benzenesulfonamide] | > 10 µM | > 10 µM | > 10 µM | < 5 µM | > 10 µM
CCCS(=O)(=O)Nc1ccc(F)c(C(=O)c2c[nH]c3ncc(-c4ccc(N5CCCC5)nc4)cc23)c1F [P-2231, Propane-1-sulfonic acid {2,4-difluoro-3-[5-(6-pyrrolidin-1-yl-pyridin-3-yl)-1H-pyrrolo[2,3-b]pyridine-3-carbonyl]-phenyl}-amide] | > 10 µM | < 5 µM | 5 to 10 µM | < 0.1 µM | > 10 µM
COc1ccnc2[nH]cc(C(=O)c3c(F)ccc(NS(=O)(=O)c4ccccc4F)c3F)c12 [P-2021, N-[2,4-Difluoro-3-(4-methoxy-1H-pyrrolo[2,3-b]pyridine-3-carbonyl)-phenyl]-2-fluoro-benzenesulfonamide] | > 10 µM | > 10 µM | > 10 µM | < 1 µM | > 10 µM
CCCS(=O)(=O)Nc1ccc(F)c(C(=O)c2c[nH]c3ncc(-c4ccc(C(=O)NC)nc4)cc23)c1F [P-2180, 5-{3-[2,6-Difluoro-3-(propane-1-sulfonylamino)-benzoyl]-1H-pyrrolo[2,3-b]pyridin-5-yl}-pyridine-2-carboxylic acid methylamide] | > 10 µM | – | < 5 µM | < 1 µM | > 10 µM
CCCS(=O)(=O)Nc1cccc(C(=O)c2c[nH]c3ncc(-c4cnc(N(C)C)nc4)cc23)c1F [P-2408, Propane-1-sulfonic acid {3-[5-(2-dimethylamino-pyrimidin-5-yl)-1H-pyrrolo[2,3-b]pyridine-3-carbonyl]-2-fluoro-phenyl}-amide] | > 10 µM | – | 5 to 10 µM | < 0.1 µM | > 10 µM
CCCS(=O)(=O)Nc1ccc(F)c(C(=O)c2c[nH]c3ncc(-c4ccc(OC)nc4OC)cc23)c1F [P-2184, Propane-1-sulfonic acid {3-[5-(2,6-dimethoxy-pyridin-3-yl)-1H-pyrrolo[2,3-b]pyridine-3-carbonyl]-2,4-difluoro-phenyl}-amide] | > 10 µM | – | 5 to 10 µM | < 1 µM | > 10 µM
CCCS(=O)(=O)Nc1ccc(F)c(C(=O)c2c[nH]c3ncc(-c4cncc(S(C)(=O)=O)c4)cc23)c1F [P-2188, Propane-1-sulfonic acid {2,4-difluoro-3-[5-(5-methanesulfonyl-pyridin-3-yl)-1H-pyrrolo[2,3-b]pyridine-3-carbonyl]-phenyl}-amide] | > 10 µM | – | 5 to 10 µM | < 10 µM | > 10 µM
CCCS(=O)(=O)Nc1ccc(F)c(C(=O)c2c[nH]c3ncc(-c4ccc(S(N)(=O)=O)cc4)cc23)c1F [P-2194, 4-{3-[2,6-Difluoro-3-(propane-1-sulfonylamino)-benzoyl]-1H-pyrrolo[2,3-b]pyridin-5-yl}-benzenesulfonamide] | > 10 µM | – | > 10 µM | < 5 µM | > 10 µM
CCCS(=O)(=O)Nc1ccc(F)c(C(=O)c2c[nH]c3ncc(-c4ccc(C(=O)NC5CC5)nc4)cc23)c1F [P-2181, 5-{3-[2,6-Difluoro-3-(propane-1-sulfonylamino)-benzoyl]-1H-pyrrolo[2,3-b]pyridin-5-yl}-pyridine-2-carboxylic acid cyclopropylamide] | > 10 µM | – | < 5 µM | < 1 µM | > 10 µM
Cc1cnc2[nH]cc(C(=O)c3c(F)ccc(NS(=O)(=O)c4cccnc4)c3F)c2c1 [P-2069, Pyridine-3-sulfonic acid [2,4-difluoro-3-(5-methyl-1H-pyrrolo[2,3-b]pyridine-3-carbonyl)-phenyl]-amide] | < 5 µM | – | < 5 µM | < 5 µM | < 5 µM
COc1ccnc2[nH]cc(C(=O)c3c(F)ccc(NS(=O)(=O)c4cccc(F)c4)c3F)c12 [P-2023, N-[2,4-Difluoro-3-(4-methoxy-1H-pyrrolo[2,3-b]pyridine-3-carbonyl)-phenyl]-3-fluoro-benzenesulfonamide] | < 5 µM | – | 5 to 10 µM | < 1 µM | 5 to 10 µM
O=C(c1c(F)ccc(NS(=O)(=O)c2c(F)cccc2F)c1F)c1c[nH]c2ncc(Cl)cc12 [P-2003, N-[3-(5-Chloro-1H-pyrrolo[2,3-b]pyridine-3-carbonyl)-2,4-difluoro-phenyl]-2,6-difluoro-benzenesulfonamide] | > 10 µM | – | > 10 µM | < 1 µM | > 10 µM
Cc1cnc2[nH]cc(C(=O)c3c(F)ccc(NS(=O)(=O)c4c(F)cccc4F)c3F)c2c1 [P-2024, N-[2,4-Difluoro-3-(5-methyl-1H-pyrrolo[2,3-b]pyridine-3-carbonyl)-phenyl]-2,6-difluoro-benzenesulfonamide] | > 10 µM | – | > 10 µM | < 5 µM | > 10 µM
